In data set [1] the test system is 3D primary human hepatocytes microtissues (IPHH_02).
Experimental: (§1) B. Coating of Seahorse Spheroid plates • 20 uL of Poly-D-Lysine (100 ug/mL diluted in cell culture grade water) were added to each well of the Seahorse Spheroid plate (Incubation for 20min @ RT) • After coating, the Seahorse Spheroid plate was washed with 200 uL of sterile water and wash was removed (Washing step repeated once) • Seahorse Spheroid plate has been air dried for a few minutes
(§2) D. Seahorse XF Analyzer Run • While cell incubation fill up the ports of the cartridge according to the Seahorse manufacturer's protocol • Setup groups and parameters for the measurement (basal: 7 cycles, oligomycin 2 uM: 6 cycles, FCCP 0.5 uM: 3 cycles, FCCP 1 uM: 3 cycles, Rot/AA 0.5 uM: 9 cycles) • Start the measurement
(§3) DILI classification: Drug-induced liver injury according to Gustafsson et al, 2014 (N=negative, P=positive). CMax=concentration of candidate compound used in Gustafsson et al, 2014; CTop=concentration of candidate compound used herein; IC50CV/Cyt determined by the CellTiter-Glo Luminescent Cell Viability Assay (Promega, Madison, US) as disclosed herein, IC50MTSRR determined as inhibition on spare respiratory capacity (SPARE), as disclosed herein; MOS: Margin of safety; High Mito-toxic risk: IC5O_MTSRR<0.75×IC5O_CV/CYT; Low Mito-toxic risk: IC5O_MTSRR<IC5O_CV/CYT and IC5O_MTSRR≥0.75×IC5O_CV/CYT; No Mito-toxic risk: IC5O_MTSRR≥IC5O_CV/CYT
For data set [2] the following is noted: categorized by Gustafsson et al; cited from earlier work.
Data set [3] has as its system 3D primary human hepatocytes microtissues (IPHH_02). Briefly: Seahorse XF Analyzer measurement of spare respiratory capacity (microtissue-specific respiration rate, MTSRR) after 48 h compound exposure. The settings on record: High: IC50_MTSRR<0.75×IC50_CV/CYT; Low: IC50_MTSRR<IC50_CV/CYT and ≥0.75×IC50_CV/CYT; No: IC50_MTSRR≥IC50_CV/CYT (CV/CYT by CellTiter-Glo). (In general: ATP-based viability assays read luminescence as a measure of living cells.)
Experimental: as §1, §2, §3

For 2 molecules, Mitochondrial toxicity risk and DILI classification results are on record in patent publication US20190079079A1, “3-D TISSUE CULTURE BASED METHOD TO ASSESS MITOCHONDRIAL IMPAIRMENT” (INSPHERO AG, priority 2016, published 2019).

Counter-ions that a name gives are not always drawn. Like-named read-outs stand apart in the source and are kept apart here.

As for `O=c1[nH]c(=O)n([C@@H]2O[C@H](CO)[C@@H](O)[C@@H]2F)cc1I` [Fialuridine], in data set [1], the Mitochondrial toxicity risk entry is “not have specific mitochondrial toxicity”. Moreover, the DILI classification result in data set [2] is recorded as “liver toxic”.
In the case of `CN(C)C(=N)N=C(N)N` [Metformin HCl], in data set [2], the DILI classification result is given as “not liver toxic”. The Mitochondrial toxicity risk entry in data set [3] is “low mitochondrial toxicity”.
